Measured values reported in US12428433B2, “Fluorine-containing heterocyclic derivatives with macrocyclic structure and use thereof” (ScinnoHub Pharmaceutical Co., Ltd, priority 2019, dated 2025).
Read-outs that look alike come from different tables or passages of the source.

What was measured:
TRKa = TRKa (Homo sapiens (Human), UniProt P04629); assay: Kinase inhibitory activity (Caliper mobility shift), TRKa; type: biochemical
Method: (§1) […] (Shanghai) Co., Ltd. was commissioned to complete the testing example. […] 3.1 A tested compound was accurately weighed and dissolved in 100% DMSO to prepare into a 10 mM solution. […] 3.2.3 A kinase solution of 2.5 times final concentration was prepared with 1×kinase buffer. […] 3.2.5 The reaction plate was shaken and mixed evenly, and then incubated at room temperature for 10 minutes. 3.2.6 Mixed solutions of ATP and kinase substrate 22 of 5 times and 3 times final concentrations were prepared with 1×kinase buffer. 3.2.7 15 μL of mixed solution of ATP and substrate of 5 times or 3 times final concentration was added. 3.2.8 The 384-well plate was centrifuged at 1,000 rpm for 30 seconds, shaken and mixed evenly, and then incubated at room temperature for corresponding time. 3.2.9 The kinase reaction was terminated. 3.2.10 A conversion rate was read by the microplate reader Caliper EZ Reader. Calculation Formula Inhibition rate %=(conversion rate % maximum-conversion rate % sample)/(conversion rate % maximum-conversion rate % minimum)×100 wherein the conversion rate % sample was: a reading number of a conversion rate of a sample; the conversion rate % minimum was: an average value of the negative control well, which represented a reading number of a conversion rate without an enzyme activity well; and the conversion rate % maximum was: an average value of a ratio of the positive control well, which represented a reading number of a conversion rate without a compound inhibition well.

TRKA(G595R) = TRKA(G595R) (Homo sapiens (Human), UniProt P04629, G595R); assay: Kinase inhibitory activity (Caliper mobility shift), TRKA(G595R); type: biochemical
TRKA(G595R), sequence (P04629 33-796 G595R): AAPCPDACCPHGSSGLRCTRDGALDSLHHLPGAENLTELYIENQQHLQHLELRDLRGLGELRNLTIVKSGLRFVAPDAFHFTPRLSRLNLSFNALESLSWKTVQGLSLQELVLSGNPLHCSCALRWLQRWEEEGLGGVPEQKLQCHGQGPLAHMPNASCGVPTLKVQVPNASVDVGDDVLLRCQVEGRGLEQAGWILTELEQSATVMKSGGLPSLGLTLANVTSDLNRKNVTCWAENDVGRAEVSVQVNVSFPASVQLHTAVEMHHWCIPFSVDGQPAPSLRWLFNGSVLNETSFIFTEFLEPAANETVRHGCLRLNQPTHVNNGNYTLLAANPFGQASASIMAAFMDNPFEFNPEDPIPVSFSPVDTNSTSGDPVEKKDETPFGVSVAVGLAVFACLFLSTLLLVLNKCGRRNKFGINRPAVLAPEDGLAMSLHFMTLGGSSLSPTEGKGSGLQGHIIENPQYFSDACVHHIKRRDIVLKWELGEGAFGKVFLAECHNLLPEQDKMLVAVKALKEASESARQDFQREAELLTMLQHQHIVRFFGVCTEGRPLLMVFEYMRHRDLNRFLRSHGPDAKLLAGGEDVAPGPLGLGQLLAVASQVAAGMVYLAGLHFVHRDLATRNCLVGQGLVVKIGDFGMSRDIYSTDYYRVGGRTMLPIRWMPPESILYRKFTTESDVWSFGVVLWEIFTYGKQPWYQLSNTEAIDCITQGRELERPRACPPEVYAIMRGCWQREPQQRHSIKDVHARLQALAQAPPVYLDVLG
Method: as §1

TRKC(G623R) = TRKC(G623R) (Homo sapiens (Human), UniProt Q16288, G623R); assay: Kinase inhibitory activity (Caliper mobility shift), TRKC(G623R); type: biochemical
TRKC(G623R), sequence (Q16288 32-839 G623R): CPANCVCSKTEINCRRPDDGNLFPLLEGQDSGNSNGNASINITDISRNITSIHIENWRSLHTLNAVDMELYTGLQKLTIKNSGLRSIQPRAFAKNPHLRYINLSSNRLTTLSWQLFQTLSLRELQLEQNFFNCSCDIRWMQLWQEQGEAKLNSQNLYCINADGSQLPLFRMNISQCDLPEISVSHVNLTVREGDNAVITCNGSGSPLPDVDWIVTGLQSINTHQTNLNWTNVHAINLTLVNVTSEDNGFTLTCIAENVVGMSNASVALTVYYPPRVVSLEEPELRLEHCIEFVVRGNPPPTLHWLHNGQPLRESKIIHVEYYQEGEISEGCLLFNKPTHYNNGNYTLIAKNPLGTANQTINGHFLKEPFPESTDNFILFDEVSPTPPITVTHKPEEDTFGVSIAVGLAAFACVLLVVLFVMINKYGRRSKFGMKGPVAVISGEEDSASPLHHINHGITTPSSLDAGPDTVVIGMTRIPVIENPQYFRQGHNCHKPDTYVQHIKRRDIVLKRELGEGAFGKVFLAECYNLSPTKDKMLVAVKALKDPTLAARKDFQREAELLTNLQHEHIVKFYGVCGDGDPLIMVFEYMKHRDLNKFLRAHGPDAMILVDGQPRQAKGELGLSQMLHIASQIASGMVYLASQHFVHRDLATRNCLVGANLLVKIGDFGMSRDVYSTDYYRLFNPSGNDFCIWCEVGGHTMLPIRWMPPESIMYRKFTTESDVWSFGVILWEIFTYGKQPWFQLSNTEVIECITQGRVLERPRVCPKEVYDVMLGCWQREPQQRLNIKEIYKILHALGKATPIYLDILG
Method: Sundia Meditech (Shanghai) Co., Ltd. was commissioned to complete the testing example.
3.1 A tested compound was accurately weighed and dissolved in 100% DMSO to prepare into a 10 mM solution.
250 nL of the compound of 100 times final concentration was transferred to a reaction plate OptiPlate-384F by a dispenser Echo 550.
3.2.3 A kinase solution of 2.5 times final concentration was prepared with 1×kinase buffer.
3.2.4 10 μL of kinase solution of 2.5 times final concentration was added into a compound well and a positive control well respectively; and 10 μL of 1×kinase buffer was added into a negative control well.
3.2.5 The reaction plate was shaken and mixed evenly, and then incubated at room temperature for 10 minutes.
3.2.6 Mixed solutions of ATP and kinase substrate 22 of 5 times and 3 times final concentrations were prepared with 1×kinase buffer.
3.2.7 15 μL of mixed solution of ATP and substrate of 5 times or 3 times final concentration was added.
3.2.8 The 384-well plate was centrifuged at 1,000 rpm for 30 seconds, shaken and mixed evenly, and then incubated at room temperature for corresponding time.
3.2.9 The kinase reaction was terminated.
3.2.10 A conversion rate was read by the microplate reader Caliper EZ Reader.
Calculation Formula Inhibition rate %=(conversion rate % maximum−conversion rate % sample)/(conversion rate % maximum−conversion rate % minimum)×100
wherein the conversion rate % sample was: a reading number of a conversion rate of a sample; the conversion rate % minimum was: an average value of the negative control well, which represented a reading number of a conversion rate without an enzyme activity well; and the conversion rate % maximum was: an average value of a ratio of the positive control well, which represented a reading number of a conversion rate without a compound inhibition well.
Fitting of dose-effect curve: a log value of concentration was used as an X axis, a percentage inhibition rate was used as a Y axis, and the dose-effect curve was fitted by a log (inhibitor) vs. response-variable slope of the analysis software GraphPad Prism 5 (four-parameter model fitting), so as to obtain an IC50 value of each compound on enzyme activity.

Ba/F3 EVT6-NTRK3-G623R = assay: In-vitro cell viability (CTG), NTRK mutant cells; type: cell-based; details: Mus musculus, read-out: Ba/F3 EVT6-NTRK3-G623R IC50
Method: (§2) Hefei Precedo Biomedical Technology Co., Ltd. was commissioned to complete the testing example, and NTRK mutant cells used were constructed by this company.
(§3) Inhibitory effects of the compound of the present application on growth of three NTRK mutant cells (Ba/F3 LMNA-NTRK1-G667C, Ba/F3 EVT6-NTRK3-G623R and Ba/F3 LMNA-NTRK1-G595R) were measured.
(§4) Cells in logarithmic growth phase were collected and counted by a blood platelet counter, a cell concentration was adjusted to 3 to 6×10^4 cell/mL, 90 μL of cell suspension was added into a 96-well plate, and cells in the 96-well plate were cultured at 37° C. under 5% CO2 and 95% humidity overnight.
(§5) The to-be-tested compound was prepared into a 10 times drug solution in a medium containing 1% DMSO, with […] and the drug solution was diluted by 3 times in sequence to obtain drug solutions with 9 concentrations in total. […] 10 μL of prepared drug solution was added into each well of the 96-well plate in which the cells were inoculated. Then, 90 μL of medium containing 1% DMSO was added to obtain a drug solution with a highest concentration of 1 μM, and the drug solution was diluted by 3 times in sequence to obtain drug solutions with 9 concentrations in total. A final concentration of DMSO in each well was 0.1%, and three multiple wells were provided for the drug of each concentration. The cells in the 96-well plate in which the drug has been added were cultured at 37° C. under 5% CO2 and 95% humidity for 72 hours, and then subjected to CTG analysis.
(§6) An equal volume of CTG solution was added into each well, the 96-well plate was placed at room temperature for 20 minutes to stabilize a luminescence signal, and a luminescence value was read.
(§7) Data was analyzed by GraphPad Prism 7.0 software, and fitted by nonlinear S-curve regression to obtain a dose-effect curve, from which an IC50 value was calculated. Cell survival rate (%)=(Lum to-be-tested drug−Lum medium control)/(Lum cell control−Lum medium control)×100%.

Ba/F3 LMNA-NTRK1-G595R = assay: In-vitro cell viability (CTG), NTRK mutant cells; type: cell-based; details: Mus musculus, read-out: Ba/F3 LMNA-NTRK1-G595R IC50
Method: as §2, §3, §4, §5, §6, §7

Ba/F3 LMNA-NTRK1-G667C = assay: In-vitro cell viability (CTG), NTRK mutant cells; type: cell-based; details: Mus musculus, read-out: Ba/F3 LMNA-NTRK1-G667C IC50
Method: as §2, §3, §4, §5, §6, §7

[1] = Stability test in liver microsomes, human; type: in vitro ADME; details: for half-life at 1 μM: 0.5 mg/mL
Method: (§8) A stability of the compound of the present application in liver microsomes of human, rat and mouse was measured.
(§9) 3.1 A buffer and a liver microsome were prepared into an incubation solution according to the following table:
(§10) 3.2 The following two experiments were carried out respectively: a) incubation system added with coenzyme factor NADPH: 25 μL of NADPH (10 mM) was added into an incubation solution (mainly comprising a liver microsome and a phosphate buffer), so that final concentrations of the liver microsome and the NADPH were 0.5 mg/mL and […] respectively; and b) incubation system without coenzyme factor NADPH: 25 μL of phosphate buffer (100 mM) was added into the incubation solution, so that the final concentration of the liver microsome was 0.5 mg/mL. The incubation systems above were preheated at 37° C. for 10 minutes respectively.
(§11) 3.3 2.5 μL of positive control compound or a tested compound solution (100 μM) was added into the incubation systems described in “step 3.2” above respectively for reaction, and the positive control compound was verapamil (purchased from Sigma), so that a final concentration of the tested compound of the present application or the positive control compound was 1 μM. The incubation solution added with the compound was incubated in water at 37° C. in batches.
(§12) 3.4 30 μL of aliquot was taken from a reaction solution after 0.5 minute, 5 minutes, 15 minutes, 30 minutes and 45 minutes respectively, and the reaction was terminated by adding 5 times volume of cold acetonitrile containing 200 nM caffeine and 100 nM tolbutamide. The aliquot was centrifuged at a gravity acceleration of 3,220 g for 40 minutes, and 100 μL of supernatant was mixed with 100 μL of ultrapure water, and then used for LC-MS/MS analysis.
(§13) A peak area was determined by an extracted ion chromatogram. A slope value k was determined by linear regression of a remaining percentage of a parent drug relative to […] an incubation time curve.
(§14) In-vitro half-life periods (t1/2) were respectively calculated and determined according to the slope value, and an average value of the in-vitro half-life periods was converted into an in-vitro intrinsic clearance rate (CLint, represented by μL/min/mg protein).

[2] = Stability test in liver microsomes, rat; type: in vitro ADME; details: for half-life at 1 μM: 0.5 mg/mL
Method: as §8, §9, §10, §11, §12, §13, §14

[3] = Stability test in liver microsomes, mouse; type: in vitro ADME; details: for half-life at 1 μM: 0.5 mg/mL
Method: as §8, §9, §10, §11, §12, §13, §14

TRKa, sequence (P04629 33-796): as the sequence (P04629 33-796 G595R) above, with R563G counted along it

IC50 (TRKa) | IC50 (TRKA(G595R)) | IC50 (TRKC(G623R)) | IC50 (Ba/F3 EVT6-NTRK3-G623R; BaF3, 72 hours, CTG) | IC50 (Ba/F3 LMNA-NTRK1-G595R; BaF3, 72 hours, CTG) | IC50 (Ba/F3 LMNA-NTRK1-G667C; BaF3, 72 hours, CTG) | CLint [1] | Structure (SMILES) | IC50 (Ba/F3 EVT6-NTRK3-G623R; BaF3, 72 h) | IC50 (Ba/F3 LMNA-NTRK1-G595R; BaF3, 72 h) | IC50 (Ba/F3 LMNA-NTRK1-G667C; BaF3, 72 h) | microsomal CLint at 1 μM [1] | half-life at 1 μM [1] | % Remaining(45 min) [1] | microsomal CLint at 1 μM [2] | half-life at 1 μM [2] | % Remaining(45 min) [2] | microsomal CLint at 1 μM [3] | half-life at 1 μM [3] | % Remaining(45 min) [3]
320 nM | > 1000 nM | > 1000 nM | > 1000 nM | > 1000 nM | > 1000 nM | – | C[C@H]1Nc2ccn3ncc(c3n2)C(=O)N[C@H]2C[C@H](C2)Oc2ncccc21 [Example 4, (3^1S,3^3S,6^3E,6^4E,8R)-8-methyl-2-oxo-4,7-diaza-6(3,5)-pyrazolo[1,5-a]pyrimidine-1(2,3)-pyridine-3(1,3)-cyclobutylcyclooctane-5-one] | – | – | – | – | – | – | – | – | – | – | – | –
127 nM | 561 nM | > 1000 nM | > 1000 nM | > 1000 nM | > 1000 nM | – | C[C@H]1Nc2nc3c(cnn3cc2F)C(=O)NC2CC(C2)Oc2ncccc21 [Example 5, (3^1S,3^3S,6^3E,6^4E,8R)-6^6-fluoro-8-methyl-2-oxo-4,7-diaza-6(3,5)-pyrazolo[1,5-a]pyrimidine-1(2,3)-pyridine-3(1,3)-cyclobutylcyclooctane-5-one] | – | – | – | – | – | – | – | – | – | – | – | –
0.52 nM | 2.9 nM | 8.2 nM | 536 nM | 116 nM | 40 nM | – | C[C@H]1Nc2ccn3nc(F)c(c3n2)C(=O)N[C@H]2C[C@H](C2)Oc2ncc(F)cc21 [Example 6, (3^1S,3^3S,6^3Z,6^4E,8R)-1^5,6^2-difluoro-8-methyl-2-oxo-4,7-diaza-6(3,5)-pyrazolo[1,5-a]pyrimidine-1(2,3)-pyridine-3(1,3)-cyclobutylcyclooctane-5-one] | – | – | – | – | – | – | – | – | – | – | – | –
– | – | – | 145 nM | 12 nM | 6.3 nM | 82.65 µL/min/mg | C[C@@H]1CCc2ncc(F)cc2[C@H]2CCCN2c2ccn3ncc(c3n2)C(=O)N1 [LOXO-195, reference compound] | – | – | – | – | 16.8 min | 16.23% | 152 µL/min/mg | 9.12 min | 4.88% | 186 µL/min/mg | 7.45 min | 1.98%

Structure (SMILES) | IC50 (TRKa) | IC50 (TRKA(G595R)) | IC50 (TRKC(G623R)) | IC50 (Ba/F3 EVT6-NTRK3-G623R; BaF3, 72 hours, CTG) | IC50 (Ba/F3 LMNA-NTRK1-G595R; BaF3, 72 hours, CTG) | IC50 (Ba/F3 LMNA-NTRK1-G667C; BaF3, 72 hours, CTG) | CLint [1] | IC50 (Ba/F3 EVT6-NTRK3-G623R; BaF3, 72 h) | IC50 (Ba/F3 LMNA-NTRK1-G595R; BaF3, 72 h) | IC50 (Ba/F3 LMNA-NTRK1-G667C; BaF3, 72 h) | microsomal CLint at 1 μM [1] | half-life at 1 μM [1] | % Remaining(45 min) [1] | microsomal CLint at 1 μM [2] | half-life at 1 μM [2] | % Remaining(45 min) [2] | microsomal CLint at 1 μM [3] | half-life at 1 μM [3] | % Remaining(45 min) [3]
C[C@@H]1CCc2ncc(F)cc2[C@H]2CCCN2c2nc3c(cnn3cc2F)C(=O)N1 [Example 1] | 0.62 nM | 2.5 nM | 3.7 nM | – | – | – | – | 190 nM | 13 nM | 5.9 nM | 170 µL/min/mg | 8.17 min | 4.24% | 189 µL/min/mg | 7.35 min | 3.30% | 82.7 µL/min/mg | 16.8 min | 16.15%
